Type in all cases: in vivo
One assay has as its system Tetranychus urticae. The assay is described as follows: Acaricidal test against Tetranychus urticae. To be noted: 500 ppm water dilution, 15 ml sprayed over brush bean with female adults set free 6 days before; after 8 days. As for the experimental part:
About twenty female adults of Tetranychus urticae were set free on brush bean (Phaseolus vulgaris) in the primary leaf stage, which had been potted in a plastic cup for 7 days after the seeding. After 6 days, a 200-fold water dilution (500 ppm) of a test compound formulation obtained according to Formulation Example 1 or 2 was sprayed at a volume of 15 ml over the plant. After 8 days, each compound was evaluated for acaricidal activity on the following criteria.
−: almost no damage and completely no surviving mites
±: slight damage and some few surviving mites
+: rather smaller damage and a rather fewer surviving mites than non-treatment case
++: same as non-treatment case

A further assay relates to Spodoptera litura. The assay is described as follows: Insecticidal test against Spodoptera litura. The note with it: 144 h, 500 ppm water dilution, 2 ml absorbed in 13 g artificial diet, fourth-instar larvae, after 6 days. As for the experimental part:
A 200-fold water dilution (500 ppm) of a test compound formulation obtained according to Formulation Example 1 or 2 was absorbed at a volume of 2 ml in an artificial diet (Insecta LF available from Nihon Nosan K.K.) having a weight of 13 g, which had been prepared in a polyethylene cup having a diameter of 11 cm. Five fourth-instar larvae of Spodoptera litura were set free in the cup. After 6 days, the survival of the larvae was examined to determine the mortality.

In the next assay the test system is Plutella xylostella. The assay is described as follows: Insecticidal test against Plutella xylostella. To be noted: 96 h, 50 ppm water dilution sprayed over potted cabbages, 25 ml per pot, third-instar larvae, after 4 days, read-out: mortality. An outline of the steps:
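Potted cabbages at four-to-five leaf stage sprayed with 50 ppm compound formulation plus spreading agent at 3000-fold dilution, air-dried, then infested with ten third-instar larvae per pot. Mortality determined after 4 days.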

A further assay deals with Heliothis virescens. The assay is described as follows: Insecticidal test against Heliothis virescens. The note with it: 168 h, 100 ppm water dilution, 0.2 ml on surface of artificial diet, second-instar larvae, after 7 days. As for the experimental part: A water dilution (100 ppm) of a test compound formulation obtained according to Formulation Example 1 was added dropwise at a volume of 0.2 ml and uniformly spread over the surface of an artificial diet having a weight of 3 g, which had been prepared in a 30 ml plastic cup. After air drying, one second-instar larva of Heliothis virescens was set free in each cup. Ten larvae were used for each treatment. After 7 days, the mortality of the larvae was determined.

Another assay deals with Helicoverpa armigera. In words: Insecticidal test against Helicoverpa armigera. The note with it: 120 h, 100 ppm water dilution, cotton leaf fragment immersed 10 seconds, third-instar larvae, after 5 days. Put shortly: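 Cotton leaf discs (5 cm) were dipped 10 s in a 100 ppm aqueous dilution of formulated compound, air-dried, and each was given one third-instar larva. Ten larvae per treatment; mortality was scored after 5 days.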

For the compound `CC(COCCCCCOc1c(Cl)cc(OCC=C(Cl)Cl)cc1Cl)=NOC(C)(C)C` [(104), 5-(2,6-dichloro-4-(3,3-dichloro-2-propenyloxy)phenoxy)pentyloxyacetone O-tert-butyloxime], in the assay with Tetranychus urticae, the acaricidal activity entry is on record as ““−” or “±””. Also, the mortality at 500 µg/mL in the assay on Spodoptera litura was ≥ 80%. Besides, the mortality at 50 µg/mL in the assay on Plutella xylostella is ≥ 80%. The mortality at 100 µg/mL in the assay on Heliothis virescens and in the assay on Helicoverpa armigera was ≥ 80% in each case.

The values are drawn from patent US6437184B1, “Oxime compounds, their use, and intermediates for their production” (Sumitomo Chemical Company, Limited, priority 1997, dated 2002).
